The record followed here is PubChem BioAssay AID328 (DTP/NCI, 2004).

This test concerns BDF1 mice, P388 leukemia ip, median survival T/C. Nature of the test: NCI In Vivo Anticancer Drug Screen. Data for tumor model P388 Leukemia (intraperitoneal) in B6D2F1 (BDF1) mice. Particulars: endpoint: median survival time, higher = longer survival. The essentials:
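Survival ratio, drug arm over vehicle arm, in mice with a transplanted tumour.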

Setting [1] is: dose: 25.0 mg/kg/injection, schedule: Q04DX003 (ip), vehicle: saline with Tween-80.
[2] abbreviates: dose: 50.0 mg/kg/injection, schedule: Q04DX003 (ip), vehicle: saline with Tween-80.
The mark [3] stands for this setting: dose: 100.0 mg/kg/injection, schedule: Q04DX003 (ip), vehicle: saline with Tween-80.
Setting [4] is: dose: 100.0 mg/kg/injection, schedule: Q01DX009 (ip), vehicle: Klucel (hydroxypropylcellulose) (HPC).
Where [5] appears, read: dose: 50.0 mg/kg/injection, schedule: Q01DX009 (ip), vehicle: saline.
[6] abbreviates: dose: 100.0 mg/kg/injection, schedule: Q01DX009 (ip), vehicle: saline.
Where [7] appears, read: dose: 200.0 mg/kg/injection, schedule: Q01DX009 (ip), vehicle: saline.
Where [8] appears, read: dose: 50.0 mg/kg/injection, schedule: Q01DX009 (ip), vehicle: saline with Tween-80.
The mark [9] stands for this setting: dose: 100.0 mg/kg/injection, schedule: Q01DX009 (ip), vehicle: saline with Tween-80.
The mark [10] stands for this setting: dose: 200.0 mg/kg/injection, schedule: Q01DX009 (ip), vehicle: saline with Tween-80.
The mark [11] stands for this setting: dose: 200.0 mg/kg/injection, schedule: Q04DX003 (ip), vehicle: saline with Tween-80.
The mark [12] stands for this setting: dose: 400.0 mg/kg/injection, schedule: Q04DX003 (ip), vehicle: saline with Tween-80.
The mark [13] stands for this setting: dose: 50.0 mg/kg/injection, schedule: Q01DX001 (ip), vehicle: saline with Tween-80.
Where [14] appears, read: dose: 100.0 mg/kg/injection, schedule: Q01DX001 (ip), vehicle: saline with Tween-80.

“And” between values parts separate entries of the source, which are not always exact repeats. Equal values may be shown once. Inconclusive results and toxic doses are left out.

In the case of `CC(C)(C)Cc1cc(O)c2c(c1O)C(=O)c1ccccc1C2=O`, the T/C by setting is: under setting [1], 100 % of control; under setting [2], 102 % of control; under setting [3], 95 % of control.
For the molecule `COc1ccc(P(=S)(S)c2ccc(OC)cc2)cc1`, the T/C is, setting by setting: under setting [4], 100 % of control; (dose: 300.0 mg/kg/injection, schedule: Q01DX009 (ip), vehicle: Klucel (hydroxypropylcellulose) (HPC)) 95 % of control.
For `C=CCCCCCC/C=C\CCCCC`, under “dose: 50.0 mg/kg/injection, schedule: Q01DX010 (ip), vehicle: alcohol”, the T/C is 104 % of control.
Regarding `CC(O)C(C)(O)C(=O)O` (stereo not given), the T/C is 103 % of control under setting [5]; 117 % of control under setting [6]; 101 % of control (dose: 100.0 mg/kg/injection, schedule: Q04DX003 (ip), vehicle: saline); 91 % of control under setting [7]; 95 % of control (dose: 200.0 mg/kg/injection, schedule: Q04DX003 (ip), vehicle: saline); 99 % of control (dose: 300.0 mg/kg/injection, schedule: Q01DX009 (ip), vehicle: saline).
Regarding `CNC(=O)C(C)(C)c1ccccc1`, the T/C by setting is: under setting [4], 90 % of control; (dose: 200.0 mg/kg/injection, schedule: Q01DX009 (ip), vehicle: Klucel (hydroxypropylcellulose) (HPC)) 90 % of control; (dose: 400.0 mg/kg/injection, schedule: Q01DX009 (ip), vehicle: Klucel (hydroxypropylcellulose) (HPC)) 104 % of control.
With `c1ccc2c(c1)ccc1nc3c4ccccc4c4ccccc4c3nc12`, the T/C reads like this: under setting [8], 114 % of control; under setting [9], 113 % of control; under setting [10], 105 % of control.
In the case of `CC(=O)[C@H]1CC[C@H]2[C@@H]3CCC4=CC(=O)[C@H](C)C[C@]4(C)[C@@]3(F)[C@@H](O)C[C@]12C`, the T/C (dose: 25.0 mg/kg/injection, schedule: Q01DX009 (ip), vehicle: saline with Tween-80) is 100 % of control; the T/C under setting [8] is 100 % of control; the T/C under setting [9] is 95 % of control and 104 % of control; the T/C under setting [3] was 100 % of control; the T/C under setting [11] is 100 % of control; the T/C under setting [12] was 90 % of control.
For `O=C(O)C(CCCCC1CCCCC1)CCC1CCCCC1` (stereo not given), the T/C is 100 % of control under setting [13]; 100 % of control under setting [14]; 100 % of control (dose: 200.0 mg/kg/injection, schedule: Q01DX001 (ip), vehicle: saline with Tween-80).
As for `COc1ccc(N2c3ccccc3-c3cc[nH]c(=O)c3[C@H]2O)cc1OC`, the T/C (dose: 37.5 mg/kg/injection, schedule: Q01DX009 (ip), vehicle: Klucel (hydroxypropylcellulose) (HPC)) is 119 % of control; the T/C (dose: 75.0 mg/kg/injection, schedule: Q01DX006 (ip), vehicle: Klucel (hydroxypropylcellulose) (HPC)) is 114 % of control; the T/C (dose: 75.0 mg/kg/injection, schedule: Q01DX009 (ip), vehicle: Klucel (hydroxypropylcellulose) (HPC)) was 106 % of control; the T/C (dose: 150.0 mg/kg/injection, schedule: Q01DX009 (ip), vehicle: Klucel (hydroxypropylcellulose) (HPC)) is 163 % of control.
Take `CC(=O)OC1C(OCc2ccccc2)OC(COCc2ccccc2)C(OC2OC(COCc3ccccc3)C(OCc3ccccc3)C(OCc3ccccc3)C2OCc2ccccc2)C1OCc1ccccc1` (stereo not given): the T/C is, setting by setting: (dose: 5.31 mg/kg/injection, schedule: Q01DX009 (ip), vehicle: Klucel (hydroxypropylcellulose) (HPC)) 100 % of control and 104 % of control; (dose: 10.62 mg/kg/injection, schedule: Q01DX009 (ip), vehicle: Klucel (hydroxypropylcellulose) (HPC)) 100 % of control; (dose: 21.25 mg/kg/injection, schedule: Q01DX009 (ip), vehicle: Klucel (hydroxypropylcellulose) (HPC)) 87 % of control and 100 % of control.
For `CN(C)c1ccc(C(=O)c2ccc(N(C)C)cc2)cc1`, the T/C under setting [3] is 113 % of control; the T/C (dose: 118.0 mg/kg/injection, schedule: Q04DX003 (ip), vehicle: saline with Tween-80) is 108 % of control; the T/C (dose: 177.0 mg/kg/injection, schedule: Q04DX003 (ip), vehicle: saline with Tween-80) is 106 % of control and 110 % of control; the T/C under setting [11] is 109 % of control; the T/C (dose: 264.0 mg/kg/injection, schedule: Q04DX003 (ip), vehicle: saline with Tween-80) was 120 % of control; the T/C (dose: 265.0 mg/kg/injection, schedule: Q04DX003 (ip), vehicle: saline with Tween-80) was 103 % of control. Further, the T/C is 100 % of control (dose: 266.0 mg/kg/injection, schedule: Q04DX003 (ip), vehicle: saline with Tween-80) and 105 % of control under setting [12].
`CC(C)(C)C1=CC(C(C)(C)C)CCC1=O` (stereo not given): the T/C is, setting by setting: under setting [5], 86 % of control; (dose: 75.0 mg/kg/injection, schedule: Q04DX003 (ip), vehicle: saline) 110 % of control; under setting [6], 109 % of control; (dose: 150.0 mg/kg/injection, schedule: Q04DX003 (ip), vehicle: saline) 110 % of control; under setting [7], 118 % of control; (dose: 300.0 mg/kg/injection, schedule: Q04DX003 (ip), vehicle: saline) 120 % of control.
Regarding `COc1ccc(/C(C#N)=C2C=C/C(=N\O)C(C)=C/2Cl)cc1`, the T/C is, setting by setting: (dose: 12.5 mg/kg/injection, schedule: Q04DX003 (ip), vehicle: saline with Tween-80) 91 % of control; under setting [1], 91 % of control; under setting [2], 87 % of control.
Turning to `Cc1ccc(C2(C#N)CC2)cc1`, the T/C is, setting by setting: under setting [9], 108 % of control; under setting [3], 100 % of control; under setting [10], 112 % of control; under setting [11], 108 % of control; (dose: 400.0 mg/kg/injection, schedule: Q01DX009 (ip), vehicle: saline with Tween-80) 116 % of control; under setting [12], 116 % of control.
Regarding `CN(C)CCNC(=O)Cc1cc(O)c2c(c1O)C(=O)c1ccccc1C2=O`, the T/C was 105 % of control (dose: 50.0 mg/kg/injection, schedule: Q01DX005 (ip), vehicle: saline) and 118 % of control (dose: 100.0 mg/kg/injection, schedule: Q01DX005 (ip), vehicle: saline).
As for `CCN1CCC(O)(c2ccc(Br)cc2)C1` (stereo not given), the T/C under setting [5] is 106 % of control and the T/C under setting [6] was 97 % of control.
As to `COc1ccc(CN)cc1OC`, the T/C under setting [8] is 100 % of control, the T/C under setting [9] was 91 % of control and the T/C under setting [10] was 97 % of control.
On to `NC(=S)c1ccncc1`, for which the T/C was 86 % of control under setting [3], 86 % of control under setting [11] and 90 % of control under setting [12].
`CCOC(=O)/C=C(\C)Sc1cc(O)c2ccccc2c1O`: the T/C runs as follows: (dose: 3.13 mg/kg/injection, schedule: Q01DX009 (ip), vehicle: saline with Tween-80) 102 % of control; (dose: 6.25 mg/kg/injection, schedule: Q01DX009 (ip), vehicle: saline with Tween-80) 103 % of control.
`Cc1cc2c([nH]c1=O)C(=O)c1c(O)cccc1C2=O`: the T/C is 103 % of control (dose: 2.5 mg/kg/injection, schedule: Q01DX009 (ip), vehicle: Klucel (hydroxypropylcellulose) (HPC)); 108 % of control (dose: 5.0 mg/kg/injection, schedule: Q01DX009 (ip), vehicle: Klucel (hydroxypropylcellulose) (HPC)); 103 % of control (dose: 10.0 mg/kg/injection, schedule: Q01DX009 (ip), vehicle: Klucel (hydroxypropylcellulose) (HPC)); 104 % of control (dose: 20.0 mg/kg/injection, schedule: Q01DX009 (ip), vehicle: Klucel (hydroxypropylcellulose) (HPC)); 95 % of control (dose: 40.0 mg/kg/injection, schedule: Q01DX009 (ip), vehicle: Klucel (hydroxypropylcellulose) (HPC)); 115 % of control (dose: 80.0 mg/kg/injection, schedule: Q01DX009 (ip), vehicle: Klucel (hydroxypropylcellulose) (HPC)).
As for `O=C1C(c2ccccc2)=S=C2C=CC=CN12`, the T/C runs as follows: (dose: 12.5 mg/kg/injection, schedule: Q01DX001 (ip), vehicle: saline with Tween-80) 109 % of control; (dose: 25.0 mg/kg/injection, schedule: Q01DX001 (ip), vehicle: saline with Tween-80) 100 % of control; under setting [13], 87 % of control; under setting [14], 100 % of control.
In the case of `Cc1c2c(cc3c1[nH]c1ccccc13)C=NCC2`, the T/C is, setting by setting: under setting [8], 93 % of control; under setting [9], 99 % of control; under setting [10], 101 % of control.
Consider `CCOC(OC(C)=O)OC(C)=O`, for which the T/C runs as follows: (dose: 50.0 mg/kg/injection, schedule: Q01DX001 (ip), vehicle: saline) 100 % of control; (dose: 100.0 mg/kg/injection, schedule: Q01DX001 (ip), vehicle: saline) 115 % of control; (dose: 200.0 mg/kg/injection, schedule: Q01DX001 (ip), vehicle: saline) 110 % of control.
